Reference: patent US8138189B2, “Substituted benzene compounds as modulators of the glucocorticoid receptor” (Hoffman-La Roche Inc., priority 2009, dated 2012)

Each compound was assayed against T1, full length human recombinant glucocorticoid receptor (Homo sapiens, UniProt P04150) (assay: Glucocorticoid Receptor Binding Assay (fluorescence polarization competitor assay, Fluormone GS Far Red tracer)).
T1 construct: partially purified full length human recombinant glucocorticoid receptor; purchased Panvera/Invitrogen PV4302
T1 sequence (P04150 1-777): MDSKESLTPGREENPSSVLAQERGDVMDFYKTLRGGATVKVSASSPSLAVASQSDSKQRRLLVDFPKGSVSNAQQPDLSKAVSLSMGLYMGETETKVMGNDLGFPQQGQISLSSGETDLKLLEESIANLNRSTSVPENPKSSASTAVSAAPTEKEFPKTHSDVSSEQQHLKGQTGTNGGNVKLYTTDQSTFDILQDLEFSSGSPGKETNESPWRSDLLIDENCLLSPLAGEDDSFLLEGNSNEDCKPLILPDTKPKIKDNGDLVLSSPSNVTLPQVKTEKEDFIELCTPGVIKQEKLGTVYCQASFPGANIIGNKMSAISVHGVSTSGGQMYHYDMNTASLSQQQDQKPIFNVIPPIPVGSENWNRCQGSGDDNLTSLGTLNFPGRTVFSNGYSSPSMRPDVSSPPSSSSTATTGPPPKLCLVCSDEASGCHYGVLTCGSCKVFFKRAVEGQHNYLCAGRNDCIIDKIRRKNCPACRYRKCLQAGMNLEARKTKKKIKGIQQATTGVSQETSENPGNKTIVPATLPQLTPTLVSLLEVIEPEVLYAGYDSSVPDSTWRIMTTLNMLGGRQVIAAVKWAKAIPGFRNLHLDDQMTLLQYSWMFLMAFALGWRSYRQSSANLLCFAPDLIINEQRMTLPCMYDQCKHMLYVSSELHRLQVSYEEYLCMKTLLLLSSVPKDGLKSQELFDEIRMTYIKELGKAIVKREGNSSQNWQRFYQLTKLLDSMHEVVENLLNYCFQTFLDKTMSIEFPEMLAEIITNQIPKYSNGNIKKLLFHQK
Outline: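 Partially purified full-length recombinant human GR with a stabilizing coactivator peptide was incubated with Fluormone GS Far Red tracer and serially diluted compound for 3 h at 22 °C in the dark, pH 7.4. Fluorescence polarization was read at 610-660 nm. IC50 came from sigmoidal fitting, and Ki from Cheng-Prusoff.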
Work on `Cc1cc(C(O)(C(C)c2ccc(CCc3ccc(C(=O)O)cc3)cc2Cl)C(F)(F)F)ccn1` (stereo not shown) [Example 67, 4-(2-{3-Chloro-4-[3,3,3-trifluoro-2-hydroxy-1-methyl-2-(2-methyl-pyridin-4-yl)-propyl]-phenyl}-ethyl)-benzoic acid] yielded a Ki of 24.4 nM. In the case of `CC(c1ccc(NC(=O)c2ccc(C(=O)O)cc2)cc1Cl)C(O)(c1ccnc(Cl)c1)C(F)(F)F` (stereo not shown) [Example 69, N-{3-Chloro-4-[2-(2-chloro-pyridin-4-yl)-3,3,3-trifluoro-2-hydroxy-1-methyl-propyl]-phenyl}-terephthalamic acid], the Ki is reported as 116 nM. In the case of `CC(c1ccc(NC(=O)c2cccc(C(=O)O)c2)cc1Cl)C(O)(c1ccnc(Cl)c1)C(F)(F)F` (stereo not shown) [Example 70, N-{3-Chloro-4-[2-(2-chloro-pyridin-4-yl)-3,3,3-trifluoro-2-hydroxy-1-methyl-propyl]-phenyl}-isophthalamic acid], the Ki is reported as 315 nM. `CC(c1ccc(NC(=O)c2cccc(CC(=O)O)c2)cc1Cl)C(O)(c1ccnc(Cl)c1)C(F)(F)F` (stereo not shown) [Example 73, (3-{3-Chloro-4-[2-(2-chloro-pyridin-4-yl)-3,3,3-trifluoro-2-hydroxy-1-methyl-propyl]-phenylcarbamoyl}-phenyl)-acetic acid] was tested, and the Ki was 93.5 nM. `CC(c1ccc(NS(=O)(=O)c2ccc(C(=O)O)cc2)cc1Cl)C(O)(c1ccnc(Cl)c1)C(F)(F)F` (stereo not shown) [Example 76, 4-{3-Chloro-4-[2-(2-chloro-pyridin-4-yl)-3,3,3-trifluoro-2-hydroxy-1-methyl-propyl]-phenylsulfamoyl}-benzoic acid] gave a Ki of 178 nM. Compound `CC(c1ccc(Nc2ccc(C(=O)O)cc2)cc1Cl)C(O)(c1ccnc(Cl)c1)C(F)(F)F` (stereo not shown) [Example 77, 4-{3-Chloro-4-[2-(2-chloro-pyridin-4-yl)-3,3,3-trifluoro-2-hydroxy-1-methyl-propyl]-phenylamino}-benzoic acid] has a Ki of 13.9 nM. Work on `CC(c1ccc(N(c2ccc(C(=O)O)cn2)c2ccc(C(=O)O)cn2)cc1Cl)C(O)(c1ccnc(Cl)c1)C(F)(F)F` (stereo not shown) [Example 78, 6,6′-(3-Chloro-4-(3-(2-chloropyridin-4-yl)-4,4,4-trifluoro-3-hydroxybutan-2-yl)phenylazanediyl)dinicotinic acid] yielded a Ki of 76.7 nM. In the case of `CC(c1ccc(Oc2ccc(CC(=O)O)cc2)cc1Cl)C(O)(c1ccnc(Cl)c1)C(F)(F)F` (stereo not shown) [Example 79, (4-{3-Chloro-4-[2-(2-chloro-pyridin-4-yl)-3,3,3-trifluoro-2-hydroxy-1-methyl-propyl]-phenoxy}-phenyl)-acetic acid], the Ki is reported as 13.4 nM. `CC(c1ccc(Oc2ccc(C(=O)O)cc2)cc1Cl)C(O)(c1ccnc(Cl)c1)C(F)(F)F` (stereo not shown) [Example 80, 4-{3-Chloro-4-[2-(2-chloro-pyridin-4-yl)-3,3,3-trifluoro-2-hydroxy-1-methyl-propyl]-phenoxy}-benzoic acid] was tested, and the Ki was 2.1 nM. Work on `CC(c1ccc(Oc2ccc(C(=O)O)nc2)cc1Cl)C(O)(c1ccnc(Cl)c1)C(F)(F)F` (stereo not shown) [Example 81, 5-{3-Chloro-4-[2-(2-chloro-pyridin-4-yl)-3,3,3-trifluoro-2-hydroxy-1-methyl-propyl]-phenoxy}-pyridine-2-carboxylic acid] yielded a Ki of 26.5 nM. Compound `CC(c1ccc(Oc2ccc(C(=O)O)c(Cl)c2)cc1Cl)C(O)(c1ccnc(Cl)c1)C(F)(F)F` (stereo not shown) [Example 82, 2-Chloro-4-{3-chloro-4-[2-(2-chloro-pyridin-4-yl)-3,3,3-trifluoro-2-hydroxy-1-methyl-propyl]-phenoxy}-benzoic acid] has a Ki of 5.1 nM. With `CC(c1ccc(Oc2ccc(C(=O)O)c(F)c2)cc1Cl)C(O)(c1ccnc(Cl)c1)C(F)(F)F` (stereo not shown) [Example 83, 4-{3-Chloro-4-[2-(2-chloro-pyridin-4-yl)-3,3,3-trifluoro-2-hydroxy-1-methyl-propyl]-phenoxy}-2-fluoro-benzoic acid] the Ki was 5.6 nM. `CC(c1ccc(Oc2ccccc2C(=O)O)cc1Cl)C(O)(c1ccnc(Cl)c1)C(F)(F)F` (stereo not shown) [Example 84, 2-{3-Chloro-4-[2-(2-chloro-pyridin-4-yl)-3,3,3-trifluoro-2-hydroxy-1-methyl-propyl]-phenoxy}-benzoic acid] was tested, and the Ki was 35.5 nM. For `CC(c1ccc(Oc2ccc(OCC(=O)O)cc2)cc1Cl)C(O)(c1ccnc(Cl)c1)C(F)(F)F` (stereo not shown) [Example 85, (4-{3-Chloro-4-[2-(2-chloro-pyridin-4-yl)-3,3,3-trifluoro-2-hydroxy-1-methyl-propyl]-phenoxy}-phenoxy)-acetic acid], the Ki was 1.4 nM. For `COc1cc(Oc2ccc(C(C)C(O)(c3ccnc(Cl)c3)C(F)(F)F)c(Cl)c2)ccc1C(=O)O` (stereo not shown) [Example 86, 4-{3-Chloro-4-[2-(2-chloro-pyridin-4-yl)-3,3,3-trifluoro-2-hydroxy-1-methyl-propyl]-phenoxy}-2-methoxy-benzoic acid], the Ki was 16.4 nM. `CC(c1ccc(Oc2cccc(CC(=O)O)c2)cc1Cl)C(O)(c1ccnc(Cl)c1)C(F)(F)F` (stereo not shown) [Example 87, (3-{3-Chloro-4-[2-(2-chloro-pyridin-4-yl)-3,3,3-trifluoro-2-hydroxy-1-methyl-propyl]-phenoxy}-phenyl)-acetic acid] gave a Ki of 15.1 nM. For `CC(c1ccc(Oc2ccc(C(=O)O)cc2F)cc1Cl)C(O)(c1ccnc(Cl)c1)C(F)(F)F` (stereo not shown) [Example 88, 4-{3-Chloro-4-[2-(2-chloro-pyridin-4-yl)-3,3,3-trifluoro-2-hydroxy-1-methyl-propyl]-phenoxy}-3-fluoro-benzoic acid], the Ki was 1.2 nM. For `CC(c1ccc(Oc2ccc(C(=O)O)cc2Cl)cc1Cl)C(O)(c1ccnc(Cl)c1)C(F)(F)F` (stereo not shown) [Example 89, 3-Chloro-4-{3-chloro-4-[2-(2-chloro-pyridin-4-yl)-3,3,3-trifluoro-2-hydroxy-1-methyl-propyl]-phenoxy}-benzoic acid], the Ki was 3.4 nM. With `CC(c1ccc(Oc2ccc(Cl)c(C(=O)O)c2)cc1Cl)C(O)(c1ccnc(Cl)c1)C(F)(F)F` (stereo not shown) [Example 90, 2-Chloro-5-{3-chloro-4-[2-(2-chloro-pyridin-4-yl)-3,3,3-trifluoro-2-hydroxy-1-methyl-propyl]-phenoxy}-benzoic acid] the Ki was 4.5 nM. With `CC(c1ccc(Oc2ccc(F)c(C(=O)O)c2)cc1Cl)C(O)(c1ccnc(Cl)c1)C(F)(F)F` (stereo not shown) [Example 91, 5-{3-Chloro-4-[2-(2-chloro-pyridin-4-yl)-3,3,3-trifluoro-2-hydroxy-1-methyl-propyl]-phenoxy}-2-fluoro-benzoic acid] the Ki was 7.1 nM. In the case of `CCOC(=O)c1ccc(COc2ccc(C(C)C(O)(c3ccnc(C)c3)C(F)(F)F)c(Cl)c2)cc1` (stereo not shown) [Example 93, 4-{3-Chloro-4-[3,3,3-trifluoro-2-hydroxy-1-methyl-2-(2-methyl-pyridin-4-yl)-propyl]-phenoxymethyl}-benzoic acid ethyl ester], the Ki is reported as 8.2 nM. Work on `Cc1cc(C(O)(C(C)c2ccc(OCc3ccc(C(=O)O)cc3)cc2Cl)C(F)(F)F)ccn1` (stereo not shown) [Example 94, 4-{3-Chloro-4-[3,3,3-trifluoro-2-hydroxy-1-methyl-2-(2-methyl-pyridin-4-yl)-propyl]-phenoxymethyl}-benzoic acid] yielded a Ki of 4 nM. `COC(=O)c1ccc(COc2ccc(C(C)C(O)(c3ccnc(C)c3)C(F)(F)F)c(Cl)c2)c(OC)c1` (stereo not shown) [Example 95, 4-{3-Chloro-4-[3,3,3-trifluoro-2-hydroxy-1-methyl-2-(2-methyl-pyridin-4-yl)-propyl]-phenoxymethyl}-3-methoxy-benzoic acid methyl ester] was tested, and the Ki was 3.6 nM. Compound `COc1cc(C(=O)O)ccc1COc1ccc(C(C)C(O)(c2ccnc(C)c2)C(F)(F)F)c(Cl)c1` (stereo not shown) [Example 96, 4-{3-Chloro-4-[3,3,3-trifluoro-2-hydroxy-1-methyl-2-(2-methyl-pyridin-4-yl)-propyl]-phenoxymethyl}-3-methoxy-benzoic acid] has a Ki of 6.1 nM. In the case of `CCOC(=O)c1ccc(COc2ccc(C(C)C(O)(c3ccnc(C)c3)C(F)(F)F)c(Cl)c2)cn1` (stereo not shown) [Example 97, 5-{3-Chloro-4-[3,3,3-trifluoro-2-hydroxy-1-methyl-2-(2-methyl-pyridin-4-yl)-propyl]-phenoxymethyl}-pyridine-2-carboxylic acid ethyl ester], the Ki is reported as 9.1 nM. `Cc1cc(C(O)(C(C)c2ccc(OCc3ccc(C(=O)O)nc3)cc2Cl)C(F)(F)F)ccn1` (stereo not shown) [Example 98, 5-{3-Chloro-4-[3,3,3-trifluoro-2-hydroxy-1-methyl-2-(2-methyl-pyridin-4-yl)-propyl]-phenoxymethyl}-pyridine-2-carboxylic acid] showed a Ki of 40.9 nM. Compound `COC(=O)c1ccnc(COc2ccc(C(C)C(O)(c3ccnc(C)c3)C(F)(F)F)c(Cl)c2)c1` (stereo not shown) [Example 99, 2-{3-Chloro-4-[3,3,3-trifluoro-2-hydroxy-1-methyl-2-(2-methyl-pyridin-4-yl)-propyl]-phenoxymethyl}-isonicotinic acid methyl ester] has a Ki of 9.1 nM. For `Cc1cc(C(O)(C(C)c2ccc(OCc3cc(C(=O)O)ccn3)cc2Cl)C(F)(F)F)ccn1` (stereo not shown) [Example 100, 2-{3-Chloro-4-[3,3,3-trifluoro-2-hydroxy-1-methyl-2-(2-methyl-pyridin-4-yl)-propyl]-phenoxymethyl}-isonicotinic acid], the Ki was 34.9 nM.
